Several values for one entry are separate records, joined by “and”; a condition that tells them apart may be missing. Equal values may be shown once.
Columns and labels:
[1] = biological target: 5-hydroxytryptamine receptor 6 (Homo sapiens, UniProt P50406)
[2] = biological target: 5-hydroxytryptamine receptor 1D (Homo sapiens, UniProt P28221)
[3] = biological target: 5-hydroxytryptamine receptor 2B (Homo sapiens, UniProt P41595)
[4] = biological target: T1, 5-hydroxytryptamine receptor 2C (Homo sapiens, UniProt P28335)
T1 sequence (P28335 whole entry): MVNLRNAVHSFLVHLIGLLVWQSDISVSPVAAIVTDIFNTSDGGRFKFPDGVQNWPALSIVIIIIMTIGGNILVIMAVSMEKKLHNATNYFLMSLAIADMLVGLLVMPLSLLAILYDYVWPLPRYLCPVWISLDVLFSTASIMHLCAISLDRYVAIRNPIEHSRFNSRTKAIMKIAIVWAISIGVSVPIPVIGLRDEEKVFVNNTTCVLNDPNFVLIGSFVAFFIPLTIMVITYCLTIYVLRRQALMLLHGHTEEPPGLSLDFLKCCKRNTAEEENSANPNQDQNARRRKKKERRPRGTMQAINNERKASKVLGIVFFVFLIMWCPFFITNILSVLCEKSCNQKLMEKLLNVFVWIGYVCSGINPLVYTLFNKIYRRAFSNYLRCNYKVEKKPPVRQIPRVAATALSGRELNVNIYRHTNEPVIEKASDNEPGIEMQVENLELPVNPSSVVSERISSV

[5] = biological target: 5-hydroxytryptamine receptor 1B (Homo sapiens, UniProt P28222)
[6] = biological target: 5-hydroxytryptamine receptor 1E (Homo sapiens, UniProt P28566)
[7] = biological target: 5-hydroxytryptamine receptor 2A (Homo sapiens, UniProt P28223)
[8] = biological target: 5-hydroxytryptamine receptor 7 (Homo sapiens, UniProt P34969)
[9] = biological target: T2, 5-hydroxytryptamine receptor 1F (Homo sapiens, UniProt P30939)
T2 sequence (P30939 whole entry): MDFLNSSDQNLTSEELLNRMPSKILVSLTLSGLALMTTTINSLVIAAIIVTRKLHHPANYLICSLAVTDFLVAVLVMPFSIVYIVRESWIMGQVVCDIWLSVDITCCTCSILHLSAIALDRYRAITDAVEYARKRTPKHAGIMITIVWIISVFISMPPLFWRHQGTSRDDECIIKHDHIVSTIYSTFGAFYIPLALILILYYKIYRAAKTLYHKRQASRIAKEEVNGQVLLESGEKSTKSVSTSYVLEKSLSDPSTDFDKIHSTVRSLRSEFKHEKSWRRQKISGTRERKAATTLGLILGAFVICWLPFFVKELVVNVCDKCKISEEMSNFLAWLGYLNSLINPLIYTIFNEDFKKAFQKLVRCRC

[10] = biological target: T3, 5-hydroxytryptamine receptor 1A (Homo sapiens, UniProt P08908)
T3 sequence (P08908 whole entry): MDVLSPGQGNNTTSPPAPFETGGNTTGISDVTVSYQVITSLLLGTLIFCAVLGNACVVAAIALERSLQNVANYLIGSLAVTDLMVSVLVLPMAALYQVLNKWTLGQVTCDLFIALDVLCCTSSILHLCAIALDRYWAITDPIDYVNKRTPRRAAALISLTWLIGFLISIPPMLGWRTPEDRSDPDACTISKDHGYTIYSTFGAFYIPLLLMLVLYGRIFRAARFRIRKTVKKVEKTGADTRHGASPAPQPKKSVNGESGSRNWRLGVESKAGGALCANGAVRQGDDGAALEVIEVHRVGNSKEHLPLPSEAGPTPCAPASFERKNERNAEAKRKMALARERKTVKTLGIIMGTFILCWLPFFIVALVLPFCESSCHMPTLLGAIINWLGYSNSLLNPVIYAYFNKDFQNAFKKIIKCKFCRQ

Sequence of 5-hydroxytryptamine receptor 1E (P28566 whole entry): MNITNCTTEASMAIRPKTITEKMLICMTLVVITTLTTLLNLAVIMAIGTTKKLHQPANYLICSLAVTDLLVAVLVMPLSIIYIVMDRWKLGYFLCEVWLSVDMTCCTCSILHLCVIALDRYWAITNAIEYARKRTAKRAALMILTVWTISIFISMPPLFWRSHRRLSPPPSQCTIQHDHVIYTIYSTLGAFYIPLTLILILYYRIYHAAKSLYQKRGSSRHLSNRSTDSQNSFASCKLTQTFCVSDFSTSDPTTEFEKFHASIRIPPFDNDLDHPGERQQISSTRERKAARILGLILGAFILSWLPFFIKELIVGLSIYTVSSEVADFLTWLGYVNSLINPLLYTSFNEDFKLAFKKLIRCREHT
Sequence of 5-hydroxytryptamine receptor 2B (P41595 whole entry): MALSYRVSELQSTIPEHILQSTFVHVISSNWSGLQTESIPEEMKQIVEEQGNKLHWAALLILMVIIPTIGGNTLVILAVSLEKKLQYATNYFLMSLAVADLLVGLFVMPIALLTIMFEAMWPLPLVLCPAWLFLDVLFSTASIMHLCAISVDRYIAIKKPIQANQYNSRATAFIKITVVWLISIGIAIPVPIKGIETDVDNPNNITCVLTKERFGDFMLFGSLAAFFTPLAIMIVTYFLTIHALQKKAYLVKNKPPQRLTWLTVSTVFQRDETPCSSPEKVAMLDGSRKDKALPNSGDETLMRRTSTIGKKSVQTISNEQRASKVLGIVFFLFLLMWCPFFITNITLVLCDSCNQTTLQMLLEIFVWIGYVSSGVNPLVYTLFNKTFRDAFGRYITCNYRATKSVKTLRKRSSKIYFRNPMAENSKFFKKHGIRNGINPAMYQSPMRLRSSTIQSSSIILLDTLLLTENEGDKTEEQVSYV
Sequence of 5-hydroxytryptamine receptor 2A (P28223 whole entry): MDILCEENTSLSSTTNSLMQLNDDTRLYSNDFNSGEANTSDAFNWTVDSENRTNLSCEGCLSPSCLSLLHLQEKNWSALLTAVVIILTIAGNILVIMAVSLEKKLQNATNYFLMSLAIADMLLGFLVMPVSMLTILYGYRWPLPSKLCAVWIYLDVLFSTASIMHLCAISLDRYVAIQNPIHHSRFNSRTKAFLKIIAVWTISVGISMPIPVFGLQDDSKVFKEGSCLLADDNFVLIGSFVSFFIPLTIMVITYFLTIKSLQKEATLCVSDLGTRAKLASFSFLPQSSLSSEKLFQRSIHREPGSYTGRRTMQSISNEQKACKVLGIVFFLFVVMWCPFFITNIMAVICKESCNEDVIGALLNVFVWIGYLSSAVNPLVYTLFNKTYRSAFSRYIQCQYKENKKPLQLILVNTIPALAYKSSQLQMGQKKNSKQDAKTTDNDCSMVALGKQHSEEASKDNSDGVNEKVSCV
Sequence of 5-hydroxytryptamine receptor 6 (P50406 whole entry): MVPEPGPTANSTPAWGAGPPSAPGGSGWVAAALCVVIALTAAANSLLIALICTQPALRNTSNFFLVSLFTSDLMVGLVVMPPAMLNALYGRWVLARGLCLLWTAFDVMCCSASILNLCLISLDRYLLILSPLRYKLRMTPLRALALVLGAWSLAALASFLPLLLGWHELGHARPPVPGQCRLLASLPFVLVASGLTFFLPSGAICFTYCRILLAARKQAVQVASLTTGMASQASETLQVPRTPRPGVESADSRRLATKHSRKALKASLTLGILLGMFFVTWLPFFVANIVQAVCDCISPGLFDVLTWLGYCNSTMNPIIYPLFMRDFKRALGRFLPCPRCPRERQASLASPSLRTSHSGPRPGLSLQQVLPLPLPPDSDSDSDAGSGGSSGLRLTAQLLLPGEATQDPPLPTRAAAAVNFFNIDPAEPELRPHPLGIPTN
Sequence of 5-hydroxytryptamine receptor 1B (P28222 whole entry): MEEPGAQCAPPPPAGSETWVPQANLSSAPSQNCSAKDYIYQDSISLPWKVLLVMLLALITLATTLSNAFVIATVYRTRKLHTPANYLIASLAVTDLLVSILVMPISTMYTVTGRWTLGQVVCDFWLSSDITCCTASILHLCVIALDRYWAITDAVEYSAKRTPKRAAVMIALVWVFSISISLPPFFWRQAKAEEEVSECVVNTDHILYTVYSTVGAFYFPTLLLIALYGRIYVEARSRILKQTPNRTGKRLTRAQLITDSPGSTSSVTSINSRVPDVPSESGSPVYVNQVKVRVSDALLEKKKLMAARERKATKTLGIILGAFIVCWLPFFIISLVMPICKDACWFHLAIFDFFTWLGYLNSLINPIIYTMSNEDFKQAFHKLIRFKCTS
Sequence of 5-hydroxytryptamine receptor 1D (P28221 whole entry): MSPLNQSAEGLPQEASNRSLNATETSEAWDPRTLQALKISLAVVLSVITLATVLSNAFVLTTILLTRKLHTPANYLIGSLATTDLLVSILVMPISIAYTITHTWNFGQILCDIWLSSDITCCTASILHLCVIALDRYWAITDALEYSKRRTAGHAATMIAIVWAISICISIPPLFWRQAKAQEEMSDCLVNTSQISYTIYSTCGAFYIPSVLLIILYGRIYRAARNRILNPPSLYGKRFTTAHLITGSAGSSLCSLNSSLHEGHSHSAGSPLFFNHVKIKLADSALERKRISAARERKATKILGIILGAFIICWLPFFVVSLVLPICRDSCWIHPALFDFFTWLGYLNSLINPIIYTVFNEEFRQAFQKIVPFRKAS
Sequence of 5-hydroxytryptamine receptor 7 (P34969 whole entry): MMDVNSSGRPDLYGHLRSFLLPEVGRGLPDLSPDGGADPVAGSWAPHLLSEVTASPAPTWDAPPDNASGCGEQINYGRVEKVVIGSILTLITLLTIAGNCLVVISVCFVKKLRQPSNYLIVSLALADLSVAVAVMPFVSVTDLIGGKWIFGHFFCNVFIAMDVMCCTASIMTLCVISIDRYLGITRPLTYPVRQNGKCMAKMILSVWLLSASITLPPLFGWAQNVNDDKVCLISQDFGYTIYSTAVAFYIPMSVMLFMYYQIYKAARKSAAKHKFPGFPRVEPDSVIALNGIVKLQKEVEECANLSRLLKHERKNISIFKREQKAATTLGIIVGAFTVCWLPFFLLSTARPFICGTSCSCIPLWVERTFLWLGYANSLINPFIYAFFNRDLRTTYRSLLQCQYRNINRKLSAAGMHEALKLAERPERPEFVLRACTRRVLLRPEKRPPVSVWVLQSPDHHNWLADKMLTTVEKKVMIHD

## OC(CN1CCN(c2cccc(Cl)c2)CC1)C(c1ccccc1)c1ccccc1 (stereo not drawn)
[1]
  Ki: 1.26 µM
[2]
  Ki: 0.0126 µM and 0.00794 µM
[3]
  Ki: 0.0398 µM
[4]
  Ki: 0.631 µM
[5]
  Ki: 0.794 µM and 1.26 µM
[6]
  Ki: 6.31 µM
[7]
  Ki: 0.251 µM
[8]
  Ki: 0.501 µM
[9]
  Ki: 1 µM

## COc1ccc(NC(=O)c2ccc(-c3ccc(-c4noc(C)n4)cc3C)cc2)cc1OCCN(C)C [CAS_3292447]
[1]
  Ki: 3.16 µM
[2]
  Ki: 0.0251 µM and 0.0126 µM
[3]
  Ki: 1.58 µM
[4]
  Ki: 0.158 µM
[5]
  Ki: 0.001 µM and 0.00794 µM
[10]
  Ki: 0.501 µM
[6]
  Ki: 1 µM
[7]
  Ki: 0.0501 µM
[8]
  Ki: > 10 µM
[9]
  Ki: 1 µM

## COc1ccc(NC(=O)c2ccc(-c3ccc(-c4noc(C)n4)cc3C)cc2)cc1N1CCN(C)CC1 [SMR001230745]
[1]
  Ki: 1.58 µM
[3]
  Ki: 0.631 µM
[4]
  Ki: 0.1 µM
[5]
  Ki: 0.001 µM and 0.00794 µM
[10]
  Ki: 0.0631 µM
[6]
  Ki: 3.98 µM
[7]
  Ki: 0.0158 µM
[8]
  Ki: 0.631 µM
[9]
  Ki: 0.398 µM
